These results are taken from patent publication US9512152B2, “Phospholipid compound containing unsaturated fatty acid derivative having cyclopropane ring” (NISHIZAKI BIOINFORMATION RESEARCH INSTITUTE, priority 2013, dated 2016).

The target of one test is T1, Human PTP1B (Homo sapiens, UniProt P18031).
T1 construct: made in house; host or cells: E. coli BL21(DE3)
T1 sequence (P18031 1-435): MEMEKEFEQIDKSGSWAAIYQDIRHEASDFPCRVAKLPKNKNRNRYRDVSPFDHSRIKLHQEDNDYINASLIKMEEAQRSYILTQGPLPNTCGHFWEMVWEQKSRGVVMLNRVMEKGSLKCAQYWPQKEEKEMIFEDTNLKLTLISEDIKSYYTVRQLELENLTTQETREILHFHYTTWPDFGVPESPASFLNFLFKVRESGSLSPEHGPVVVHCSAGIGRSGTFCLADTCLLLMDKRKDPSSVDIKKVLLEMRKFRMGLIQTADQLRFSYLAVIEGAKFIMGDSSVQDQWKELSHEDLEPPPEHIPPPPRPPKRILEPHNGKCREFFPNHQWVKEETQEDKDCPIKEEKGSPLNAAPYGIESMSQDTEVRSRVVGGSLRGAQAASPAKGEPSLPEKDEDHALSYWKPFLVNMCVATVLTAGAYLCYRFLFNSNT
Briefly: Assay of PTP1B activity under cell-free conditions (p-NPP substrate). It is filed as biochemical. Conditions: FIG. 2. The procedure:
Protein tyrosine phosphatase was measured under cell-free conditions by a method partially modified from the methods described in previous reports (Baba Y, et al. J Am Chem Soc 2003; 125; 9740-9749; Rice R L, et al. Biochemistry 1997; 36: 15965-15974). Human PTP1B was cloned to a pGEX-6P-3 vector having a GST tag at the NH2 terminal, and expressed in competent E. coli BL21(DE3) suitable for transformation and protein expression. GST fusion PTP1B was affinity-purified using glutathione sepharose 4B (GE Healthcare Bio-Science KK, Tokyo, Japan). It was reacted with p-nitrophenylphosphate (p-NPP) (Sigma, St. Louis, Mo., USA) as a substrate and PTP1B activity was measured. The enzyme was pre-incubated in a reaction medium [50 mM HEPES, 1 mM EDTA, 50 mM NaCl, 1 mM dithiothreitol, pH 7.2] at 37° C. for 30 min in the presence or absence of diDCP-LA-PE and with or without addition of Na3VO4 which is a PTP1B inhibitor. Then, p-NPP (10 mM) was added to the reaction medium, and the mixture was incubated for 60 min. The reaction was discontinued by the addition of 0.1N NaOH. Dephosphorylated p-NPP, i.e., p-NP, was quantified at an absorbance of 405 nm by using SpectraMax PLUS384 (Molecular Devices, Sunnyvale, Calif., USA).

Test [1] concerns C57BL/KsJ-lepr db/lepr db mouse. Description: Glucose tolerance test in type 2 diabetes model mouse. In kind it is in vivo. Conditions: oral, 0.01-3 mg/kg, 30 min before glucose 2 g/kg, FIG. 10. The method, then: C57BL/KsJ-lepr^db/lepr^db mouse (female, 8-week-old) (CLEA Japan; Tokyo, Japan) was used. The glucose tolerance test was performed using the mouse starved for 12 hr. Glucose (2 g/ml/kg body weight) was administered by gavage, and the time point thereof was taken as 0 h. diDCP-LA-PE (0.01, 0.1, 1, 3 mg/kg), insulin (0.75 U/kg) or brine was orally administered 30 min before administration of glucose. The blood (10 μl) was collected from the tail vein at the time points of 0, 30, 60, and 90 min, and each plasma sample which was labeled with p-aminobenzylethylester and prepared from the obtained blood was loaded on high performance liquid chromatography (HPLC) system (LC-10ATvp; Shimadzu Co., Kyoto, Japan). The glucose concentration was calculated from a peak area/concentration analytical curve prepared using the standard glucose solution.

For test [2], the system named is 3T3L1-GLUT4myc adipocytes. Description: Analysis of GLUT4 trafficking (cellular membrane transport of GLUT4). In kind it is cell-based. Conditions: 20 min. The method, then: 3T3L1-GLUT4myc fibroblast strain expressing GLUT4myc was used. The cells are constructed by inserting human c-MYC epitope (14 amino acids) into the first ectodomain. The cells were cultured in Dulbecco's Modified Eagles Medium (DMEM) added with 10% (v/v) bovine serum, penicillin (final concentration, 100 U/ml) and streptomycin (final concentration, 0.1 mg/ml) in a humid environment under 5% CO2 and 95% air at 37° C. When the cells reached confluence (day 0), the medium was exchanged with DMEM added with 10% (v/v) fetal bovine serum (FBS), 1 μM dexamethasone, 0.5 mM 3-isobutyl-methyl-xanthine and 0.1 mg/ml insulin to allow for differentiation from fibroblast into adipocyte. The medium was exchanged with DMEM added with 10% (v/v) FBS on day 3, day 7 and day 11. On day 14, the cells were used for the experiment.
3T3L1-GLUT4myc adipocytes were incubated in Krebs-Ringer-HEPES buffer [136 mM NaCl, 4.7 mM KCl, 1.25 mM CaCl2, 1.25 mM MgSO4 and 20 mM HEPES, pH 7.5] containing 0.2% (w/v) bovine serum albumin and added with 10 mM glucose at 37° C. for 1 hr. The cells were incubated in the presence or absence of insulin, phospholipid or a derivative thereof for 20 min. Then, the cells were homogenized by sonication in an ice-cooled mitochondria buffer containing 1% (v/v) protease inhibitor cocktail [210 mM mannitol, 70 mM sucrose, and 1 mM ethylenediaminetetraacetic acid (EDTA), 10 mM HEPES, pH 7.5]. Sequentially, the homogenate was centrifuged at 4° C. for 5 min at 3,000 rpm. The supernatant was further centrifuged at 4° C. for 15 min at 11,000 rpm. […] The protein concentration of each fraction was measured using BCA protein assay kit (Thermo Fisher Scientific, Waltham, Mass., USA). […] The immunoreactivity was detected using ECL kit (Invitrogen), and visualized using a chemical luminescence detection system (chemiluminescence detection system; GE Healthcare, Piscataway, N.J., USA). The signal density was measured using an image analysis software (Image Gauge software; GE Healthcare).

With `CCCCCC1CC1CC1CC1CCCCCCCC(=O)OC[C@H](COP(=O)(O)OCCN)OC(=O)CCCCCCCC1CC1CC1CC1CCCCC` (stereo partly shown) [diDCP-LA-PE, 1,2-o-bis-[8-{2-(2-pentyl-cyclopropylmethyl)-cyclopropyl}-octanoyl]-sn-glycero-3-phosphatidylethanolamine], the “PTP1B inhibition (phosphatase activity, dephosphorylated p-NPP)” value at Human PTP1B is “inhibits PTP1B in a concentration-dependent manner”. Further, in test [1], the “Decrease of blood glucose level” value was “decrease the blood glucose level in a dose-dependent manner”. Also, the “Promotion of cellular membrane transport of GLUT4” value in test [2] (1 μM, FIG. 7) is recorded as “an action to promote cellular membrane transport of GLUT4”. Further, the “Concentration dependence of cellular membrane transport of GLUT4” value in test [2] (given concentrations, FIG. 8) is recorded as “promotes cellular membrane transport of GLUT4 in a concentration-dependent manner”.
